#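 Method: 48-hour compound exposure of cells in 96-well plates, five concentrations, linear interpolation of endpoints. TGI: total growth inhibition.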
# What was measured:
# Experiment in all cases: NCI tumour cell line growth inhibition, 48 h
# MOLT-4 leukemia = tested on: MOLT-4 leukemia
# K-562 leukemia = tested on: K-562 leukemia
# HCC-2998 colon = tested on: HCC-2998 colon
# COLO 205 colon = tested on: COLO 205 colon
# NCI-H226 lung = tested on: NCI-H226 lung
# RPMI-8226 leukemia = tested on: RPMI-8226 leukemia
# SF-268 CNS = tested on: SF-268 CNS
# NCI/ADR-RES ovarian = tested on: NCI/ADR-RES ovarian
# OVCAR-5 ovarian = tested on: OVCAR-5 ovarian
# IGROV1 ovarian = tested on: IGROV1 ovarian
# TK-10 renal = tested on: TK-10 renal
# HS 578T breast = tested on: HS 578T breast
# MCF7 breast = tested on: MCF7 breast
# EKVX NSCLC = tested on: EKVX NSCLC
# OVCAR-3 ovarian = tested on: OVCAR-3 ovarian
# SK-MEL-5 melanoma = tested on: SK-MEL-5 melanoma
# U251 CNS = tested on: U251 CNS
# M14 melanoma = tested on: M14 melanoma
# MDA-N = tested on: MDA-N
# MALME-3M melanoma = tested on: MALME-3M melanoma
# SK-MEL-2 melanoma = tested on: SK-MEL-2 melanoma
# LOX IMVI melanoma = tested on: LOX IMVI melanoma
# SN12C renal = tested on: SN12C renal
# SW-620 colon = tested on: SW-620 colon
# NCI-H460 lung = tested on: NCI-H460 lung
# KM12 colon = tested on: KM12 colon
# OVCAR-8 ovarian = tested on: OVCAR-8 ovarian
# CCRF-CEM leukemia = tested on: CCRF-CEM leukemia
# BT-549 breast = tested on: BT-549 breast
# HOP-62 NSCLC = tested on: HOP-62 NSCLC
# HCT-15 colon = tested on: HCT-15 colon
# HT29 colon = tested on: HT29 colon
# HCT-116 colon = tested on: HCT-116 colon
# CAKI-1 renal = tested on: CAKI-1 renal
# ACHN renal = tested on: ACHN renal
# HOP-92 NSCLC = tested on: HOP-92 NSCLC
# T-47D breast = tested on: T-47D breast
# 786-0 renal = tested on: 786-0 renal
# A549 NSCLC = tested on: A549 NSCLC
# OVCAR-4 ovarian = tested on: OVCAR-4 ovarian
# SK-OV-3 ovarian = tested on: SK-OV-3 ovarian
# NCI-H23 lung = tested on: NCI-H23 lung
# SF-295 CNS = tested on: SF-295 CNS
# SNB-19 CNS = tested on: SNB-19 CNS
# DU-145 prostate = tested on: DU-145 prostate
# UACC-257 melanoma = tested on: UACC-257 melanoma
# PC-3 prostate = tested on: PC-3 prostate
# NCI-H522 lung = tested on: NCI-H522 lung
# MDA-MB-435 = tested on: MDA-MB-435
# UACC-62 melanoma = tested on: UACC-62 melanoma
# UO-31 renal = tested on: UO-31 renal
# RXF 393 renal = tested on: RXF 393 renal
# HL-60(TB) leukemia = tested on: HL-60(TB) leukemia
# MDA-MB-231 breast = tested on: MDA-MB-231 breast
# SF-539 CNS = tested on: SF-539 CNS
# A498 renal = tested on: A498 renal
# SNB-75 CNS = tested on: SNB-75 CNS
# SK-MEL-28 melanoma = tested on: SK-MEL-28 melanoma
structure (smiles),measurement,setting,value
c1ccc([Si](OCCN2CC2)(c2ccccc2)c2ccccc2)cc1,TGI,MOLT-4 leukemia,36.3 µM
same,TGI,K-562 leukemia,26.8 µM
same,TGI,HCC-2998 colon,26.4 µM
same,TGI,COLO 205 colon,24.7 µM
same,TGI,NCI-H226 lung,29.8 µM
same,TGI,RPMI-8226 leukemia,36.9 µM
same,TGI,SF-268 CNS,23 µM
same,TGI,NCI/ADR-RES ovarian,28.1 µM
same,TGI,OVCAR-5 ovarian,27.7 µM
same,TGI,IGROV1 ovarian,25.5 µM
same,TGI,TK-10 renal,29.1 µM
same,TGI,HS 578T breast,24.9 µM
same,TGI,MCF7 breast,31.8 µM
same,TGI,EKVX NSCLC,25.4 µM
same,TGI,OVCAR-3 ovarian,31.3 µM
same,TGI,SK-MEL-5 melanoma,29.2 µM
same,TGI,U251 CNS,27 µM
same,TGI,M14 melanoma,29.3 µM
same,TGI,MDA-N,28.1 µM
same,TGI,MALME-3M melanoma,31.3 µM
same,TGI,SK-MEL-2 melanoma,18.4 µM
same,TGI,LOX IMVI melanoma,27.6 µM
same,TGI,SN12C renal,27.3 µM
same,TGI,SW-620 colon,27.8 µM
same,TGI,NCI-H460 lung,25 µM
same,TGI,KM12 colon,35.2 µM
same,TGI,OVCAR-8 ovarian,33.1 µM
same,TGI,CCRF-CEM leukemia,49.5 µM
same,TGI,BT-549 breast,31.5 µM
same,TGI,HOP-62 NSCLC,30 µM
same,TGI,HCT-15 colon,21.9 µM
same,TGI,HT29 colon,27 µM
same,TGI,HCT-116 colon,27.7 µM
same,TGI,CAKI-1 renal,44.8 µM
same,TGI,ACHN renal,27.9 µM
same,TGI,HOP-92 NSCLC,18.4 µM
same,TGI,T-47D breast,39.9 µM
same,TGI,786-0 renal,27.2 µM
same,TGI,A549 NSCLC,24.1 µM
same,TGI,OVCAR-4 ovarian,22.7 µM
same,TGI,SK-OV-3 ovarian,27.5 µM
same,TGI,NCI-H23 lung,29 µM
same,TGI,SF-295 CNS,27.4 µM
same,TGI,SNB-19 CNS,16 µM
same,TGI,DU-145 prostate,27.5 µM
same,TGI,UACC-257 melanoma,33.2 µM
same,TGI,PC-3 prostate,26.3 µM
same,TGI,NCI-H522 lung,25.5 µM
same,TGI,MDA-MB-435,26.7 µM
same,TGI,UACC-62 melanoma,27.2 µM
same,TGI,UO-31 renal,28.4 µM
same,TGI,RXF 393 renal,19.2 µM
same,TGI,HL-60(TB) leukemia,50.8 µM
same,TGI,MDA-MB-231 breast,28 µM
same,TGI,SF-539 CNS,26.9 µM
C=C1C(NC)CCC23CC24CCC2(C)C(C(C)=O)C(O)CC2(C)C4CCC13 (stereo not drawn),TGI,A498 renal,> 100 µM
same,TGI,MOLT-4 leukemia,> 100 µM
same,TGI,K-562 leukemia,> 100 µM
same,TGI,HCC-2998 colon,> 100 µM
same,TGI,COLO 205 colon,> 100 µM
same,TGI,NCI-H226 lung,> 100 µM
same,TGI,RPMI-8226 leukemia,> 100 µM
same,TGI,SF-268 CNS,> 100 µM
same,TGI,NCI/ADR-RES ovarian,> 100 µM
same,TGI,OVCAR-5 ovarian,> 100 µM
same,TGI,IGROV1 ovarian,> 100 µM
same,TGI,TK-10 renal,> 100 µM
same,TGI,HS 578T breast,> 100 µM
same,TGI,MCF7 breast,> 100 µM
same,TGI,EKVX NSCLC,> 100 µM
same,TGI,OVCAR-3 ovarian,> 100 µM
same,TGI,SK-MEL-5 melanoma,> 100 µM
same,TGI,U251 CNS,> 100 µM
same,TGI,M14 melanoma,> 100 µM
same,TGI,MDA-N,> 100 µM
same,TGI,MALME-3M melanoma,> 100 µM
same,TGI,SK-MEL-2 melanoma,> 100 µM
same,TGI,LOX IMVI melanoma,> 100 µM
same,TGI,SN12C renal,> 100 µM
same,TGI,SW-620 colon,> 100 µM
same,TGI,NCI-H460 lung,> 100 µM
same,TGI,KM12 colon,> 100 µM
same,TGI,OVCAR-8 ovarian,> 100 µM
same,TGI,CCRF-CEM leukemia,> 100 µM
same,TGI,BT-549 breast,> 100 µM
same,TGI,HCT-15 colon,> 100 µM
same,TGI,HT29 colon,> 100 µM
same,TGI,HCT-116 colon,> 100 µM
same,TGI,CAKI-1 renal,> 100 µM
same,TGI,ACHN renal,> 100 µM
same,TGI,HOP-92 NSCLC,> 100 µM
same,TGI,T-47D breast,> 100 µM
same,TGI,786-0 renal,> 100 µM
same,TGI,A549 NSCLC,> 100 µM
same,TGI,OVCAR-4 ovarian,> 100 µM
same,TGI,SK-OV-3 ovarian,> 100 µM
same,TGI,NCI-H23 lung,> 100 µM
same,TGI,SF-295 CNS,82.5 µM
same,TGI,SNB-19 CNS,> 100 µM
same,TGI,DU-145 prostate,> 100 µM
same,TGI,UACC-257 melanoma,> 100 µM
same,TGI,SNB-75 CNS,> 100 µM
same,TGI,PC-3 prostate,> 100 µM
same,TGI,SK-MEL-28 melanoma,> 100 µM
same,TGI,NCI-H522 lung,> 100 µM
same,TGI,MDA-MB-435,> 100 µM
same,TGI,UACC-62 melanoma,> 100 µM
same,TGI,UO-31 renal,> 100 µM
same,TGI,HL-60(TB) leukemia,> 100 µM
same,TGI,MDA-MB-231 breast,> 100 µM
same,TGI,SF-539 CNS,> 100 µM
C#CCOC(=O)C(N)C(C)O (stereo not drawn),TGI,A498 renal,> 100 µM
same,TGI,MOLT-4 leukemia,> 100 µM
same,TGI,K-562 leukemia,> 100 µM
same,TGI,COLO 205 colon,> 100 µM
same,TGI,NCI-H226 lung,> 100 µM
same,TGI,RPMI-8226 leukemia,> 100 µM
same,TGI,SF-268 CNS,> 100 µM
same,TGI,NCI/ADR-RES ovarian,> 100 µM
same,TGI,OVCAR-5 ovarian,> 100 µM
same,TGI,IGROV1 ovarian,> 100 µM
same,TGI,TK-10 renal,> 100 µM
same,TGI,HS 578T breast,> 100 µM
same,TGI,MCF7 breast,> 100 µM
same,TGI,EKVX NSCLC,> 100 µM
same,TGI,OVCAR-3 ovarian,> 100 µM
same,TGI,SK-MEL-5 melanoma,> 100 µM
same,TGI,U251 CNS,> 100 µM
same,TGI,M14 melanoma,> 100 µM
same,TGI,MDA-N,> 100 µM
same,TGI,MALME-3M melanoma,> 100 µM
same,TGI,SK-MEL-2 melanoma,> 100 µM
same,TGI,LOX IMVI melanoma,> 100 µM
same,TGI,SN12C renal,> 100 µM
same,TGI,SW-620 colon,> 100 µM
same,TGI,KM12 colon,> 100 µM
same,TGI,OVCAR-8 ovarian,> 100 µM
same,TGI,CCRF-CEM leukemia,> 100 µM
same,TGI,BT-549 breast,> 100 µM
same,TGI,HOP-62 NSCLC,> 100 µM
same,TGI,HT29 colon,> 100 µM
same,TGI,HCT-116 colon,> 100 µM
same,TGI,CAKI-1 renal,> 100 µM
same,TGI,ACHN renal,> 100 µM
same,TGI,HOP-92 NSCLC,> 100 µM
same,TGI,T-47D breast,> 100 µM
same,TGI,786-0 renal,> 100 µM
same,TGI,A549 NSCLC,> 100 µM
same,TGI,SK-OV-3 ovarian,> 100 µM
same,TGI,NCI-H23 lung,> 100 µM
same,TGI,SF-295 CNS,> 100 µM
same,TGI,DU-145 prostate,> 100 µM
same,TGI,UACC-257 melanoma,> 100 µM
same,TGI,SNB-75 CNS,> 100 µM
same,TGI,PC-3 prostate,> 100 µM
same,TGI,SK-MEL-28 melanoma,> 100 µM
same,TGI,NCI-H522 lung,> 100 µM
same,TGI,MDA-MB-435,> 100 µM
same,TGI,UACC-62 melanoma,> 100 µM
same,TGI,UO-31 renal,> 100 µM
same,TGI,RXF 393 renal,> 100 µM
same,TGI,HL-60(TB) leukemia,> 100 µM
same,TGI,MDA-MB-231 breast,> 100 µM
